Results published in ChEMBL document CHEMBL3784937, “Synthesis and biological evaluation of indeno[1,5]naphthyridines as topoisomerase I (TopI) inhibitors with antiproliferative activity” (Eur J Med Chem, 2016).
Calls of active or inactive are those of the source. The calls are words filed in the database; no cut-off is given here.

Experiments:
[1] = species on record: Homo sapiens; experiment: Inhibition of human recombinant topoisomerase 1B expressed in Saccharomyces cerevisiae using plasmid DNA as substrate assessed as DNA relaxation at 100 uM preincubated with enzyme for 15 mins followed by substrate addition after 3 min by agarose gel electrophoresis
[2] = Cytotoxicity against human SKOV3 cells assessed as growth inhibition after 48 hrs by CCK8 assay; format: functional, cell-based; conditions: SK-OV-3, 48 h
[3] = species on record: Homo sapiens; experiment: Inhibition of human recombinant topoisomerase 1B expressed in Saccharomyces cerevisiae using plasmid DNA as substrate assessed as DNA relaxation at 100 uM preincubated with enzyme for 15 mins followed by substrate addition after 15 secs by agarose gel electrophoresis
[4] = Cytotoxicity against human BT20 cells assessed as growth inhibition after 48 hrs by CCK8 assay; format: functional, cell-based; conditions: BT-20, 48 h
[5] = system: A549; experiment: Cytotoxicity against human A549 cells assessed as growth inhibition after 48 hrs by CCK8 assay; format: functional, cell-based; conditions: A549, 48 h
[6] = species on record: Homo sapiens; experiment: Inhibition of human recombinant topoisomerase 1B expressed in Saccharomyces cerevisiae using plasmid DNA as substrate assessed as DNA relaxation at 100 uM preincubated with enzyme for 15 mins followed by substrate addition after 1 min by agarose gel electrophoresis
[7] = species on record: Homo sapiens; experiment: Inhibition of human recombinant topoisomerase 1B expressed in Saccharomyces cerevisiae using plasmid DNA as substrate assessed as DNA relaxation at 100 uM after 15 secs to 3 mins by agarose gel electrophoresis
[8] = species on record: Homo sapiens; experiment: Inhibition of human recombinant topoisomerase 1B expressed in Saccharomyces cerevisiae using plasmid DNA as substrate assessed as DNA relaxation at 50 uM preincubated with enzyme for 15 mins followed by substrate addition after 50 secs by agarose gel electrophoresis
[9] = Inhibition of human recombinant topoisomerase 1B expressed in Saccharomyces cerevisiae using plasmid DNA as substrate assessed as DNA relaxation at 25 uM preincubated with enzyme for 15 mins followed by substrate addition after 50 secs by agarose gel electrophoresis
[10] = species on record: Homo sapiens; experiment: Inhibition of human recombinant topoisomerase 1B expressed in Saccharomyces cerevisiae using plasmid DNA as substrate assessed as DNA relaxation at 100 uM preincubated with substrate for 15 mins followed by enzyme addition after 15 secs to 3 mins by agarose gel electrophoresis

Row | SMILES | inhibition [1] | IC50 [2] | inhibition [3] | IC50 [4] | IC50 [5] | inhibition [6] | inhibition [7] | inhibition [8] | inhibition [9] | inhibition [10]
1 | O=C1c2ccccc2-c2c1c(-c1ccc(C(F)(F)F)cc1)nc1cccnc21 | Active | > 100 µM | Active | > 100 µM | > 100 µM | Active | – | – | – | –
2 | CC[C@@]1(O)C(=O)OCc2c1cc1n(c2=O)Cc2cc3ccccc3nc2-1 [CAMPTOTHECIN] | inactive | 0.0055 µM | Active | 0.07 µM | – | Active | Active | Active | – | –
3 | O=C1c2ccccc2-c2c1c(-c1ccc(F)c(F)c1)nc1cccnc21 | Active | > 100 µM | Active | > 100 µM | 20.7 µM | Active | – | – | – | –
4 | FC(F)(F)c1ccc(-c2nc3cccnc3c3c2Cc2ccccc2-3)cc1 | Active | > 100 µM | Active | > 100 µM | > 100 µM | Active | – | – | – | –
5 | Fc1cccc(-c2nc3cccnc3c3c2Cc2ccccc2-3)c1 | Active | > 100 µM | Active | > 100 µM | > 100 µM | Active | – | Active | Active | –
6 | O=[N+]([O-])c1ccc(-c2nc3cccnc3c3c2Cc2ccccc2-3)cc1 | Active | 50.8 µM | Active | 61.3 µM | 5.7 µM | Active | – | – | – | –
7 | Fc1ccc([C@H]2Nc3cccnc3[C@H]3c4ccccc4C[C@H]32)c(F)c1 (relative stereo) | Active | > 100 µM | Active | 86.4 µM | 6.4 µM | Active | – | – | – | Active
8 | FC(F)(F)c1ccc([C@H]2Nc3cccnc3[C@H]3c4ccccc4C[C@H]32)cc1 (relative stereo) | Active | > 100 µM | Active | 63.9 µM | 4.2 µM | Active | – | Active | Active | –
9 | O=[N+]([O-])c1ccc([C@H]2Nc3cccnc3[C@H]3c4ccccc4C[C@H]32)cc1 (relative stereo) | Active | > 100 µM | Active | > 100 µM | 10.5 µM | Active | – | – | – | –
10 | c1ccc2c(c1)Cc1c(-c3ccncc3)nc3cccnc3c1-2 | Active | 10.5 µM | Active | 32.9 µM | 2.9 µM | Active | – | – | – | –
11 | Fc1ccc(-c2nc3cccnc3c3c2Cc2ccccc2-3)c(F)c1 | Active | 6.4 µM | Active | 39.6 µM | 1.7 µM | Active | – | – | – | –
12 | O=C1c2ccccc2-c2c1c(-c1cccc(F)c1)nc1cccnc21 | Active | > 100 µM | Active | > 100 µM | > 100 µM | Active | – | Active | Active | –
13 | Fc1ccc(-c2nc3cccnc3c3c2Cc2ccccc2-3)cc1F | Active | > 100 µM | Active | > 100 µM | 48.6 µM | Active | – | – | – | –
14 | OC1c2ccccc2-c2c1c(-c1ccccc1)nc1cccnc21 (stereo unspecified) | Active | > 100 µM | Active | > 100 µM | > 100 µM | Active | – | – | – | –
15 | c1ccc([C@H]2Nc3cccnc3[C@H]3c4ccccc4C[C@H]32)cc1 (relative stereo) | Active | > 100 µM | Active | > 100 µM | 5.3 µM | Active | – | – | – | –
16 | c1ccc2c(c1)C[C@@H]1[C@H]2c2ncccc2N[C@@H]1c1ccncc1 (relative stereo) | Active | 55.4 µM | Active | 24.4 µM | 10.6 µM | Active | – | – | – | Active
17 | OC1c2ccccc2-c2c1c(-c1ccc(C(F)(F)F)cc1)nc1cccnc21 (stereo unspecified) | Active | > 100 µM | Active | > 100 µM | > 100 µM | Active | – | Active | Active | –
18 | O=C1c2ccccc2-c2c1c(-c1ccc(F)cc1F)nc1cccnc21 | Active | > 100 µM | Active | > 100 µM | 34.1 µM | Active | – | – | – | –
19 | O=C1c2ccccc2-c2c1c(-c1ccccc1)nc1cccnc21 | Active | 1.9 µM | Active | 14.1 µM | 23.7 µM | Active | – | Active | Active | –
20 | Fc1ccc([C@H]2Nc3cccnc3[C@H]3c4ccccc4C[C@H]32)cc1F (relative stereo) | Active | > 100 µM | Active | > 100 µM | 27.3 µM | Active | – | – | – | Active
21 | c1ccc(-c2nc3cccnc3c3c2Cc2ccccc2-3)cc1 | Active | 47.9 µM | Active | > 100 µM | > 100 µM | Active | – | Active | Active | –
22 | Fc1cccc([C@H]2Nc3cccnc3[C@H]3c4ccccc4C[C@H]32)c1 (relative stereo) | Active | > 100 µM | Active | 15.5 µM | 3.5 µM | Active | – | Active | Active | Active
